# Like-named read-outs stand apart in the source and are kept apart here.
# Assays:
# hD3R [1] = molecular target: T1, hD3R (Homo sapiens, UniProt P35462)
# hD2LR [2] = molecular target: T2, hD2LR (Homo sapiens, UniProt P14416); experiment: Radioligand binding, agonist [3H]-; details: for (D3R/D2R) Ki ratio, [3H]-(R)-(+)-7-OH-DPAT: selectivity for D2R, value printed in parentheses
# hD3R [3] = molecular target: T1, hD3R; experiment: Radioligand binding, agonist [3H]-
# hD2LR [4] = molecular target: T2, hD2LR
# T2 sequence (P14416 whole entry): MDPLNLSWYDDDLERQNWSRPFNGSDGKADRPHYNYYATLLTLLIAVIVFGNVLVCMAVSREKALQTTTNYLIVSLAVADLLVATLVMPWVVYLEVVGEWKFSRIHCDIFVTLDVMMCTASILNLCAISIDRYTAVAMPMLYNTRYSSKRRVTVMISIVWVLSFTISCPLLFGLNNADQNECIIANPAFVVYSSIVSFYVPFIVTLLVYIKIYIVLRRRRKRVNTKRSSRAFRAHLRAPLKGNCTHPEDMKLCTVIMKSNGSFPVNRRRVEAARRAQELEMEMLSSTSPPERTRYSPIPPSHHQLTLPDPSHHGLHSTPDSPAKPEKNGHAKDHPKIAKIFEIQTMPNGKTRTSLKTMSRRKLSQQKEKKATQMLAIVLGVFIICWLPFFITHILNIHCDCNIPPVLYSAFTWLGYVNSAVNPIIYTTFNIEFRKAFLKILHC
# T1 sequence (P35462 whole entry): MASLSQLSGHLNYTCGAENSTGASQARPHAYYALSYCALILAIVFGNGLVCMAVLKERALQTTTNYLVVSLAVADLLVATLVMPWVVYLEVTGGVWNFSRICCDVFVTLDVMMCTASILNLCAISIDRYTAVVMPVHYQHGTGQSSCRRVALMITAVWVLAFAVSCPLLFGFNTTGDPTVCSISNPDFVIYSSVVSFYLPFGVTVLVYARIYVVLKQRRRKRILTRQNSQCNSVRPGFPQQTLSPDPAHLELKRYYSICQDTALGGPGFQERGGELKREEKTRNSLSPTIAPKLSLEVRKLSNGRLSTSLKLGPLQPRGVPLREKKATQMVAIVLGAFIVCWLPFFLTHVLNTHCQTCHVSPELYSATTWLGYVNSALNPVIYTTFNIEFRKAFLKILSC
SMILES,Ki (hD3R [1]) [µM],Ki (hD2LR [2]) [µM],Ki (hD3R [3]) [µM],Ki (hD2LR [4]) [µM],"(D3R/D2R) Ki ratio, [3H]-(R)-(+)-7-OH-DPAT (hD2LR [2])"
"C[C@H]1CO[C@@H](c2ccc(N)nc2)CN1CC=C1CCC(CNC(=O)c2cc3ccccc3[nH]2)C1 (mixture of isomers) [Compound 15, N-((3-(2-((2S,5S)-2-(6-Aminopyridin-3-yl)-5-methylmorpholino)ethylidene)cyclopentyl)methyl)-1H-indole-2-carboxamide]",0.104 ± 0.00765,0.0559 ± 0.00478,0.00741 ± 0.000323,7.92 ± 0.772,
"CN(CC[C@@H]1CC[C@H](CNC(=O)c2cc3ccccc3[nH]2)C1)[C@@H]1Cc2cccc3[nH]c(=O)n(c23)C1 (relative stereo) [rel-cis-16a, N-((3-(2-(Methyl((R)-2-oxo-1,2,5,6-tetrahydro-4H-imidazo[4,5,1-ij]quinolin-5-yl)amino)ethyl)cyclopentyl)methyl)-1H-indole-2-carboxamide]",,,,,(9.6)
"CN(CC[C@@H]1CC[C@@H](CNC(=O)c2cc3ccccc3[nH]2)C1)[C@@H]1Cc2cccc3[nH]c(=O)n(c23)C1 (relative stereo) [rel-trans-16b, N-((3-(2-(Methyl((R)-2-oxo-1,2,5,6-tetrahydro-4H-imidazo[4,5,1-ij]quinolin-5-yl)amino)ethyl)cyclopentyl)methyl)-1H-indole-2-carboxamide]",,,,,(17)

# Source: paper PMC11091832 (Journal of medicinal chemistry, 2021)
